The data set can be described thus: gradient 5% acetonitrile 3 min, to 50% in 2 min, to 85% in 15 min, held 3 min, 100 µL/min. Particulars: column: Zorbax Extend-C18 2.1 x 50 mm; eluents: water / acetonitrile, 0.1% formic acid. In outline: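 Retention times of pure standards were taken from adduct peaks that were selected by computer and manually inspected. Over 3 months, mixtures of ~100 molecules were run by HPLC–quadrupole time-of-flight mass spectrometry in positive and negative ionization mode. The Zorbax Extend-C18 column (2.1 × 50 mm, 1.8 μm) ran at 100 μL/min in water and acetonitrile, each containing 0.1% formic acid, with 40 μL dead volume and 900 μL dwell volume.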
Regarding `O=C(Nc1ccccc1Cl)N(CCc1ccccc1)Cc1ccccn1`, the RP-LC retention time is 852 s.
Compound `CCCNC(=O)C1CCN(c2ccc(SCC(=O)Nc3cc(F)ccc3Cl)nn2)CC1` registered an RP-LC retention time of 724 s.
Under `CCN(C(=O)C1CCCN1S(=O)(=O)c1cc2c(cc1C)NC(=O)CO2)c1cccc(C)c1` (stereo not given) stands 818 s.
For `COc1ccc(-c2cn3ccn(-c4ccc(F)c(Cl)c4)c(=O)c3n2)cc1OC` the value was 804 s.
`CCSc1nc2ccc(NS(=O)(=O)c3cccc4nsnc34)cc2s1` yielded an RP-LC retention time of 977 s.
Under `COC(=O)CNC(=O)N1CCCCCC1c1ccc(Cl)cc1` (stereo not given) stands 870 s; under `CCC(CC)C(=O)N1CCC(Oc2nccnc2N(C)C)C1` (stereo not given), 749 s; under `N#Cc1ccc(Cn2cc(C(=O)C(N)=O)c3ccccc32)cc1`, 810 s.
For `O=C(C1=NN(CCc2ccccc2)c2ccccc2S1(=O)=O)N1CCCCCC1` the value was 1020 s.
In turn, `O=C1COc2ccc(Cl)cc2N1Cc1nc(-c2ccc(-c3csc(C4CC4)n3)cc2)no1` showed an RP-LC retention time of 1310 s.
For `CCNC(=O)C1CCCN(c2nc3ncn(CC(=O)Nc4c(C)cccc4CC)c(=O)c3s2)C1` (stereo not given) the value was 703 s.
Under `COc1cccc(CNC(=O)C(=O)NCC2CCN(C(=O)NC(C)(C)C)CC2)c1` stands 719 s.
Under `CCCS(=O)(=O)c1nc2ccc(NS(=O)(=O)Cc3cc(F)cc(F)c3)cc2s1` stands 938 s.
Take `COc1ccc(CNC(=O)c2cn3cc(C)ccc3n2)cc1OC`: the RP-LC retention time amounted to 614 s.
For `COc1cccc(CNC(=O)N2CCN(C3=CC4=NC(C)CN4C=N3)CC2)c1` (stereo not given) the value was 649 s; for `Cc1cc(C(=O)N2CCOCC2)c2cccc(Cl)c2n1`, 682 s; for `COc1ccc(OC)c(NC(=O)NC(C(=O)N2CCc3ccccc32)C(C)C)c1` (stereo not given), 984 s.
Under `CC(=O)NCc1ccc(-c2noc(Cc3c(F)cccc3Cl)n2)s1` stands 834 s.
`COc1ccc(C)cc1NC(=O)NCCNC(=O)c1ccc(NC(=O)C2CCCC2)cc1` registered an RP-LC retention time of 759 s.
`CCOC(=O)C1=C(CN(C)Cc2ccccc2)NC(=O)NC1c1ccc(OC)cc1` (stereo not given) showed an RP-LC retention time of 578 s.
For `CCc1nc(NCc2ccncc2)ncc1C(=O)O` the value was 555 s.
Under `Cc1ccc(-c2noc(-c3cccc(S(=O)(=O)Nc4ccc5c(c4)OCCO5)c3)n2)cc1` stands 1140 s; under `Cc1ccc(C)c(N2CCN(C(=O)c3nc4cccnc4n(C)c3=O)CC2)c1`, 653 s.
`COc1ccc(OCc2nc(-c3ccc4c(c3)oc(=O)n4C(C)C)no2)cc1` yielded an RP-LC retention time of 1110 s.
For `CCC(=O)NCc1nc2c(n1C)CN(S(=O)(=O)c1cccc(Cl)c1)CC2` the value was 570 s; for `COc1cccc(NC(=O)c2cc(C)n3nccc3n2)c1`, 874 s; for `O=C(NCc1ccccc1)C1CCN(C(=O)c2cc3ccsc3n2Cc2ccc(Cl)cc2)CC1`, 1060 s.
For the compound `N#Cc1ccc(C(=O)NC(Cc2ccccc2)c2nnc(N3CCCC3)o2)cc1` (stereo not given), the RP-LC retention time came to 778 s.
Under `COc1ccccc1CCc1nc(C2CC(=O)N(c3ccc(F)c(Cl)c3)C2)no1` (stereo not given) stands 1110 s; under `Cc1ccccc1Cn1cc(-c2ccncc2)cc1C(=O)Nc1ccc2c(c1)OCO2`, 749 s.
In the case of `Cc1ccc(-c2nc(NC(=O)c3cc(C)on3)sc2C)cc1`, the RP-LC retention time came to 1090 s.
For `Cc1ccc(S(=O)(=O)N2CCCC2C(=O)Nc2ccc(Br)cc2)cc1` (stereo not given) the value was 1020 s.
Under `Cn1nc(C(=O)N2CCCCC2)c2c1CCN(C(=O)CCC(=O)NC1CCCCCC1)C2` stands 728 s; under `Cc1ccccc1NC(=O)C1CCCN(S(=O)(=O)c2cn(C(C)C)cn2)C1` (stereo not given), 726 s; under `COC(=O)C1(C)CCCC2(C)c3cc(OC)ccc3C(=O)C(Br)C12` (stereo not given), 1130 s.
For `Cn1c(C2CCN(C(=O)c3cccc(Cl)c3)C2)nc2ccncc21` (stereo not given) the value was 554 s; for `COc1ccc(CC(C)(O)CNC(=O)C2CC2)cc1` (stereo not given), 631 s; for `Cc1nn(CC(=O)N2CCC(C)CC2)c(=O)c2nc(-c3ccccc3)sc12`, 872 s.
With `Cc1nc(-c2ccc(C(=O)NC(C)C)cc2)no1`, the RP-LC retention time was determined as 693 s.
In turn, `CCNS(=O)(=O)c1cccnc1Nc1ccc(Cl)cc1` returned an RP-LC retention time of 1030 s.
Under `O=C1CC(c2noc(-c3cc(F)cc(F)c3)n2)CN1c1ccc(F)cc1` (stereo not given) stands 944 s; under `O=C1CC(/C=C/c2ccccc2)Cc2nc(N3CCN(Cc4ccc5c(c4)OCO5)CC3)ncc21` (stereo not given), 782 s; under `Cn1ccc2cc(S(=O)(=O)N3CCCC(C(=O)NCCCN4CCc5ccccc5C4)C3)ccc21` (stereo not given), 685 s.
For `Cc1nc(OCC(=O)Nc2ccc(F)cc2)c2ccccc2n1` the value was 709 s.
For `O=C(O)c1cn(Cc2ccc(F)cc2)c(=O)c2ccccc12` the value was 806 s; for `CC(C)N1CCC(c2nnc3n2CCN(S(=O)(=O)c2ccccc2Cl)C3)C1` (stereo not given), 599 s.
`Cc1cc(-c2nnc(NC(=O)C(C)(C)Oc3ccc(Cl)cc3)o2)c(C)o1` yielded an RP-LC retention time of 955 s.
Under `Cc1c(CN2CCSCC2)nnn1-c1ccccc1` stands 583 s.
For `CC1(C)CC(=O)C2=C(C1)Nc1ccccc1N(CC(=O)NCc1cccnc1)C2c1ccco1` (stereo not given) the value was 614 s; for `O=C(Nc1ccc2nc3n(c(=O)c2c1)CCC3)Nc1ccc(F)cc1F`, 686 s.
In the case of `COc1cc(CNC(=O)C2CCCN(c3nccnc3Sc3ccc(C)cc3)C2)cc(OC)c1` (stereo not given), the RP-LC retention time stood at 1060 s.
For `CC1CCN(S(=O)(=O)c2ccc3c(c2)CCCC(=O)N3CC(=O)N2CCN(C)CC2)CC1`, the RP-LC retention time turned out to be 656 s.
For `CO[C@H]1C(=O)N(C2CCN(C(=O)Nc3ccc4c(c3)OCCO4)CC2)[C@H]1c1ccncc1` the value was 582 s; for `c1cncc(-c2nc(-c3ccnc(N4CCOCC4)c3)no2)c1`, 953 s.
For `CCc1nc2cc(N3CCC(C(=O)NCC4CCCO4)CC3)cnc2nc1CC` (stereo not given) the value was 670 s; for `COc1nccc(N2CCC(CC(=O)NCc3cccc(OC)c3OC)CC2)n1`, 607 s; for `CCc1ccccc1NC(=O)N1CCC(n2cnc3ccccc3c2=O)CC1`, 744 s.
Under `O=C(Cc1nc(-c2ccccc2)n[nH]1)Nc1ccc(F)c(F)c1` stands 757 s; under `COCCCNC(=O)C1CCCN(S(=O)(=O)c2ccc(OC)c(C)c2)C1` (stereo not given), 768 s.
Take `Cc1cc(C)c(NC(=O)CN2C(=O)NC3(CCC(C)CC3)C2=O)c(C)c1` (stereo not given): the RP-LC retention time is 570 s.
For `COc1ccccc1N1CCN(c2cc(SCC(=O)Nc3ccc4c(c3)OCO4)ncn2)CC1` the value was 900 s; for `Cc1noc([C@@H]2CC(F)(F)CN2C(=O)c2ccoc2)n1`, 703 s; for `O=C(Nc1ccc2cn[nH]c2c1)c1ccc(=O)[nH]n1`, 567 s.
Under `Cc1ccc(S(=O)(=O)NCCC(=O)N2CCCC2c2nc(-c3ccc(Cl)cc3)no2)cc1` (stereo not given) stands 1040 s; under `Cc1cccc(-n2nc(C)c3sc(N(C)CC(=O)N4CCN(c5ccccn5)CC4)nc32)c1`, 700 s; under `CCN1C(=O)COc2ccc(-c3noc(-c4ccc(C(F)(F)F)cc4)n3)cc21`, 1260 s.
Under `Cc1cccc(Nc2c(-c3cccc(O)c3)nc3cnccn23)c1C` stands 816 s; under `CC(NC(=O)C1(c2ccc(NS(C)(=O)=O)cc2)CCCCC1)c1ccc(F)cc1` (stereo not given), 952 s.
As to `O=C(Nc1ccc(F)c(Cl)c1)c1nc2ncccn2n1`, the RP-LC retention time came out at 729 s.
The compound `CCC(=O)N(C1CCOCC1)C1CCN(S(=O)(=O)c2ccc(F)cc2)CC1` showed an RP-LC retention time of 792 s.
For `COc1ccc(-c2noc(-c3nnn(Cc4nc(-c5ccccc5OC)oc4C)c3C)n2)cc1` the value was 1100 s; for `CCOC(=O)C1=C(C)NC2=C(C(=O)C(C(=O)OC)C(C)C2)C1c1ccc(N(C)C)cc1` (stereo not given), 631 s.
For `Cc1nn(-c2ccccc2)c(C)c1S(=O)(=O)N1CCC(C(=O)NC2CCCc3ccccc32)CC1` (stereo not given) the value was 1010 s.
For `Cc1ccccc1Nc1c(-c2cccc(N(C)C)c2)nc2ccc(Br)cn12` the value was 847 s; for `CN(Cc1nc2ccccc2n1CC(=O)N(C)c1ccccc1)C(=O)c1ccco1`, 694 s.
In turn, `O=C(c1ccccc1)N1CCC(CCNS(=O)(=O)Cc2ccccc2)CC1` yielded an RP-LC retention time of 803 s.
Under `N#Cc1ccc(C(=O)N2CCOc3ccccc32)cc1` stands 864 s.
For `CS(=O)(=O)N1CCCC(C(=O)NC2CC2)CCNC(=O)CC1` (stereo not given) the value was 816 s; for `Cc1cc(NC(=O)c2ccccc2Br)nc2c1c(=O)oc1ccccc12`, 1010 s; for `COc1ccccc1-c1nc2nccc(-c3ccccc3)n2n1`, 862 s.

The values above are taken from the METLIN SMRT retention time set (Domingo-Almenara et al. 2019).
